Data from patent US20090197880A1 (Genelabs Technologies, Inc., priority 2007, published 2009).

Assay: HCV replicon assay (luciferase) in ET (Huh-lucubineo-ET) cell line
Format: cell-based
Details: Hepatitis C virus; tested at 10 μM; inhibition of replication relative to no compound control; ET replicon cells, luciferase 48-72 hours; read-out: % inhition at 10 μM
From the text: A cell line, ET (Huh-lucubineo-ET) was used for screening of compounds, or pharmaceutically acceptable salts or solvates, described herein for inhibition of HCV RNA dependent RNA polymerase. The ET cell line was stably transfected with RNA transcripts harboring a I389luc-ubi-neo/NS3-3′/ET; replicon with firefly luciferase-ubiquitin-neomycin phosphotransferase fusion protein and EMCV-IRES driven NS3-5B polyprotein containing the cell culture adaptive mutations (E1202G; T1280I; K1846T) (Krieger at al, 2001 and unpublished). The ET cells were grown in DMEM, supplemented with 10% fetal calf serum, 2 mM Glutamine, Penicillin (100 IU/mL)/Streptomycin (100 μg/mL), 1× nonessential amino acids, and 250 μg/mL G418 (“Geneticin”). They were all available through Life Technologies (Bethesda, Md.). The cells were plated at 0.5−1.0×10^4 cells/well in the 96 well plates and incubated for 24 hrs before adding the test compounds. […] Luciferase activity was measured 48-72 hours later by adding a lysis buffer and the substrate (Catalog number Glo-lysis buffer E2661 and Bright-Glo luciferase system E2620 Promega, Madison, Wis.). Cells should not be too confluent during the assay. Percent inhibition of replication was plotted relative to no compound control. Under the same condition, cytotoxicity of the compounds was determined using cell proliferation reagent, WST-1 (Roche, Germany). The compounds showing antiviral activities, but no significant cytotoxicities were chosen to determine the EC50 and TC50, the effective concentration and toxic concentration at which 50% of the maximum inhibition is observed. For these determinations, 6 dilutions of each compound were used. Compounds were typically diluted 3 fold to span a concentration range of 250 fold. EC50 and similarly TC50 values were calculated by fitting % inhibition at each concentration to the following equation:
% inhibition=100%/[(EC50/[I])^b+1]
where b is Hill's coefficient.

Compound | inhibition at 10 µM [%]
CCCCc1ccc(-c2cc(Cn3cc4nc(-c5cccc(F)c5F)nc-4cn3)on2)c(C(F)(F)F)c1 [Compound 186, 5-[3-(4-Butyl-2-trifluoromethyl-phenyl)-isoxazol-5-ylmethyl]-2-(2,3-difluoro-phenyl)-5H-imidazo[4,5-d]pyridazine] | 100
Cc1ccc(-c2cc(Cn3cc4nc(-c5cccc(F)c5F)nc-4cn3)on2)cc1 [Compound 187, 2-(2,3-Difluoro-phenyl)-5-(3-p-tolyl-isoxazol-5-ylmethyl)-5H-imidazo[4,5-d]pyridazine] | 99.7
CC(C)Cc1ccc(-c2cc(Cn3cc4nc(-c5cccc(F)c5F)nc-4cn3)on2)cc1 [Compound 190, 2-(2,3-Difluoro-phenyl)-5-[3-(4-isobutyl-phenyl)-isoxazol-5-ylmethyl]-5H-imidazo[4,5-d]pyridazine] | 99.9
CCCCCc1ccc(-c2cc(Cn3cc4nc(-c5cccc(F)c5F)nc-4cn3)on2)cc1 [Compound 191, 2-(2,3-Difluoro-phenyl)-5-[3-(4-pentyl-phenyl)-isoxazol-5-ylmethyl]-5H-imidazo[4,5-d]pyridazine] | 99.8
COC(=O)CCCOc1ccc(-c2cc(Cn3cc4nc(-c5cccc(F)c5F)nc-4cn3)on2)cc1 [Compound 192, 4-(4-{5-[2-(2,3-difluoro-phenyl)-imidazo[4,5-d]pyridazin-5-ylmethyl]-isoxazol-3-yl}-phenoxy)-butyric acid methyl ester] | 54.1
OCCCOc1ccc(-c2cc(Cn3cc4nc(-c5cccc(F)c5F)nc-4cn3)on2)cc1 [Compound 193, 3-(4-{5-[2-(2,3-difluoro-phenyl)-imidazo[4,5-d]pyridazin-5-ylmethyl]-isoxazol-3-yl}-phenoxy)-propan-1-ol] | 76.3
CN1CCN(c2ccc(-c3cc(Cn4cc5nc(-c6cccc(F)c6F)nc-5cn4)on3)cc2)CC1 [Compound 194, 2-(2,3-Difluoro-phenyl)-5-{3-[4-(4-methyl-piperazin-1-yl)-phenyl]-isoxazol-5-ylmethyl}-5H-imidazo[4,5-d]pyridazine] | 57.5
COCCOc1ccc(-c2cc(Cn3cc4nc(-c5cccc(F)c5F)nc-4cn3)on2)cc1 [Compound 195] | 98.8
Fc1cccc(-c2nc3cnn(Cc4cc(-c5ccc(OCCN6CCOCC6)cc5)no4)cc-3n2)c1F [Compound 196, 2-(2,3-Difluoro-phenyl)-5-{3-[4-(2-morpholin-4-yl-ethoxy)-phenyl]-isoxazol-5-ylmethyl}-5H-imidazo[4,5-d]pyridazine] | 89
CCCOC(=O)c1cc(-c2cc(Cn3cc4nc(-c5cccc(F)c5F)nc-4cn3)on2)ccc1OCCC [Compound 197, 5-{5-[2-(2,3-Difluoro-phenyl)-imidazo[4,5-d]pyridazin-5-ylmethyl]-isoxazol-3-yl}-2-propoxy-benzoic acid propyl ester] | 54.1
COC(=O)c1cc(OC)ccc1-c1cc(Cn2cc3nc(-c4cccc(F)c4F)nc-3cn2)on1 [Compound 198, 2-{5-[2-(2,3-Difluoro-phenyl)-imidazo[4,5-d]pyridazin-5-ylmethyl]-isoxazol-3-yl}-5-methoxy-benzoic acid methyl ester] | 50.3
O=[N+]([O-])c1ccc(-c2cc(Cn3cc4nc(-c5cccc(F)c5F)nc-4cn3)on2)cc1 [Compound 199, 2-(2,3-Difluoro-phenyl)-5-[3-(4-nitro-phenyl)-isoxazol-5-ylmethyl]-5H-imidazo[4,5-d]pyridazine] | 98.5
Fc1cccc(-c2nc3cnn(Cc4cc(-c5ccc(Br)cc5)no4)cc-3n2)c1F [Compound 200, 5-[3-(4-bromo-phenyl)-isoxazol-5-ylmethyl]-2-(2,3-difluoro-phenyl)-5H-imidazo[4,5-d]pyridazine] | 99.4
CCCCc1ccc(-c2cc(Cn3cc4nc(-c5cccc(F)c5F)nc-4cn3)on2)cc1 [Compound 201, 5-[3-(4-Butyl-phenyl)-isoxazol-5-ylmethyl]-2-(2,3-difluoro-phenyl)-5H-imidazo[4,5-d]pyridazine] | 100
Fc1cccc(-c2nc3cnn(Cc4cc(-c5ccc(C(F)(F)F)cc5)no4)cc-3n2)c1F [Compound 202, 2-(2,3-Difluoro-phenyl)-5-[3-(4-trifluoromethyl-phenyl)-isoxazol-5-ylmethyl]-5H-imidazo[4,5-d]pyridazine] | 99.2
Fc1cc(C(F)(F)F)ccc1-c1cc(Cn2cc3nc(-c4cccc(F)c4F)nc-3cn2)on1 [Compound 203, 2-(2,3-Difluoro-phenyl)-5-[3-(2-fluoro-4-trifluoromethyl-phenyl)-isoxazol-5-ylmethyl]-5H-imidazo[4,5-d]pyridazine] | 99.6
Fc1cccc(-c2nc3cnn(Cc4cc(-c5ccc(C(F)(F)F)nc5)no4)cc-3n2)c1F [Compound 205, 2-(2,3-Difluoro-phenyl)-5-[3-(6-trifluoromethyl-pyridin-3-yl)-isoxazol-5-ylmethyl]-5H-imidazo[4,5-d]pyridazine] | 98.7
Fc1cc(-c2cc(Cn3cc4nc(-c5cccc(F)c5F)nc-4cn3)on2)ccc1C(F)(F)F [Compound 206, 2-(2,3-Difluoro-phenyl)-5-[3-(3-fluoro-4-trifluoromethyl-phenyl)-isoxazol-5-ylmethyl]-5H-imidazo[4,5-d]pyridazine] | 98.1
FCCCOc1ccc(-c2cc(Cn3cc4nc(-c5cccc(F)c5F)nc-4cn3)on2)cc1 [Compound 207, 2-(2,3-Difluoro-phenyl)-5-{3-[4-(3-fluoro-propoxy)-phenyl]-isoxazol-5-ylmethyl}-5H-imidazo[4,5-d]pyridazine] | 99.5
CN(C)c1ccc(-c2cc(Cn3cc4nc(-c5cccc(F)c5F)nc-4cn3)on2)cc1 [Compound 208, (4-{5-[2-(2,3-Difluoro-phenyl)-imidazo[4,5-d]pyridazin-5-ylmethyl]-isoxazol-3-yl}-phenyl)-dimethyl-amine] | 69.7
COC(=O)c1ccc(-c2cc(Cn3cc4nc(-c5cccc(F)c5F)nc-4cn3)on2)cc1 [Compound 209, 4-{5-[2-(2,3-difluoro-phenyl)-imidazo[4,5-d]pyridazin-5-ylmethyl]-isoxazol-3-yl}-benzoic acid methyl ester] | 93.6
N#Cc1ccc(-c2cc(Cn3cc4nc(-c5cccc(F)c5F)nc-4cn3)on2)cc1 [Compound 213, 4-{5-[2-(2,3-Difluoro-phenyl)-imidazo[4,5-d]pyridazin-5-ylmethyl]-isoxazol-3-yl}-benzonitrile] | 98.1
Fc1cccc(-c2nc3cnn(Cc4cc(-c5ccc(OC(F)(F)F)cc5)no4)cc-3n2)c1F [Compound 214, 2-(2,3-Difluoro-phenyl)-5-[3-(4-trifluoromethoxy-phenyl)-isoxazol-5-ylmethyl]-5H-imidazo[4,5-d]pyridazine] | 98.5
CN(C)CCCOc1ccc(-c2cc(Cn3cc4nc(-c5cccc(F)c5F)nc-4cn3)on2)cc1 [Compound 216, [3-(4-{5-[2-(2,3-Difluoro-phenyl)-imidazo[4,5-d]pyridazin-5-ylmethyl]-isoxazol-3-yl}-phenoxy)-propyl]-dimethyl-amine] | 79.1
Fc1cccc(-c2nc3cnn(Cc4cc(-c5ccc(CN6CCCC6)cc5)no4)cc-3n2)c1F [Compound 219, 2-(2,3-Difluoro-phenyl)-5-[3-(4-pyrrolidin-1-ylmethyl-phenyl)-isoxazol-5-ylmethyl]-5H-imidazo[4,5-d]pyridazine] | 35
CCOc1ccc(-c2cc(Cn3cc4nc(-c5cccc(F)c5F)nc-4cn3)on2)cc1 [Compound 220, 2-(2,3-Difluoro-phenyl)-5-[3-(4-ethoxy-phenyl)-isoxazol-5-ylmethyl]-5H-imidazo[4,5-d]pyridazine] | 99.7
COc1ccc(-c2cc(Cn3cc4nc(-c5cccc(F)c5F)nc-4cn3)on2)cc1 [Compound 221, 2-(2,3-Difluoro-phenyl)-5-[3-(4-methoxy-phenyl)-isoxazol-5-ylmethyl]-5H-imidazo[4,5-d]pyridazine] | 98.9
CCCCOc1ccc(-c2cc(Cn3cc4nc(-c5cccc(F)c5F)nc-4cn3)on2)cc1 [Compound 222, 5-[3-(4-Butoxy-phenyl)-isoxazol-5-ylmethyl]-2-(2,3-difluoro-phenyl)-5H-imidazo[4,5-d]pyridazine] | 98.2
CC(c1cc(-c2ccc(C(F)(F)F)cc2C(F)(F)F)no1)n1cc2nc(-c3cccc(F)c3F)nc-2cn1 (stereo not drawn) [Compound 226, 5-{1-[3-(2,4-Bis-trifluoromethyl-phenyl)-isoxazol-5-yl]-ethyl}-2-(2,3-difluoro-phenyl)-5H-imidazo[4,5-d]pyridazine] | 99.7
CC(C)(c1cc(-c2ccc(C(F)(F)F)cc2C(F)(F)F)no1)n1cc2nc(-c3cccc(F)c3F)nc-2cn1 [Compound 227, 5-{1-[3-(2,4-Bis-trifluoromethyl-phenyl)-isoxazol-5-yl]-1-methyl-ethyl}-2-(2,3-difluoro-phenyl)-5H-imidazo[4,5-d]pyridazine] | 97.9
